In patent US20040096427A1, “Oral gram(+) bacteria and glutamine composition for prevention and/or treatment of gastro-intestinal dysfunctions including inflammation in the gastro-intestinal tract, neonatal necrotizing enterocolitis (nec) and bacterial sepsis” (priority 2003, published 2004):

Experiments:
E. coli [1] = settings: cited from earlier work; for adherence and translocation of Gram (−) organisms such as E. coli: Caco-2 cell culture model, U.S. Pat. No. 6,132,710
E. coli [2] = settings: cited from earlier work; for tissue injury and inflammatory cell infiltration: rabbit ileal loop model, U.S. Pat. No. 6,132,710
E. coli [3] = assay: Caco-2 cell transwell system, E. coli translocation (transcytosis); type: cell-based; settings: inventors' determination
Method: Caco-2 cells derived from human adenocarcinoma cells which show all the morphological and functional characteristics of mature small intestinal epithelial cells after differentiation were employed in a number of experimental systems. Panigrahi et al., Development of an in vitro model for study of non-01 Vibrio cholerae virulence using Caco-2 cells, Infect. Immun., 58:3415-3424 (1990). Caco-2 cells were grown in DMEM supplemented with 1% nonessential amino acids, 1% sodium pyruvate, 10% fetal calf serum, 100 U penicillin and 100 μg of streptomycin/mL in a 5% CO2 atmosphere at 37° C. For transcytosis studies, 0.2×10^6 cells in 0.3 mL medium were seeded on the apical side of 0.6 cm^2 polycarbonate transwell filters/clusters (Costar, Cambridge, Mass.). […]
A Caco-2 cell transwell system was used in accordance with Panigrahi et al. (1990) and Panigrahi et al. (1994) to grow cells on a membrane allowing the measurement of bacteria that translocate. Briefly, Caco-2 cells were grown on polycarbonate filters in transwell cluster and TEER (trans-epithelial electrical resistance) was measured before and after treatment (1) with E. coli alone, (2) in a system deprived of glutamine, (3) in a system deprived of glutamine and later replenished with glutamine, and (4) in a system deprived of glutamine and treated with a Lactobacillus strain ATCC 202195 and glutamine composition. […]

E. coli [4] = assay: E. coli adherence to gastro-intestinal mucosa; settings: inventors' determination

Compound	adherence and translocation of Gram (−) organisms such as E. coli (E. coli [1])	tissue injury and inflammatory cell infiltration (E. coli [2])	bacterial translocation (E. coli [1]; glutamine supplied from the luminal (apical) side, U.S. Pat. No. 5,981,590)	effect on translocation of E. coli across mucosal layers (E. coli [3])	protection against Gram (−) bacteria-induced necrotizing enterocolitis (E. coli [2]; instillation of rabbit ileal loops with glutamine, U.S. Pat. No. 5,981,590)	effect on E. coli adherence to gastro-intestinal mucosa (E. coli [4])
Lactobacillus plantarum	capable of blocking	reduced	–	–	–	–
NC(=O)CC[C@H](N)C(=O)O [glutamine]	–	–	reduce bacterial translocation	prevents translocation	protects	does not have an effect
Lactobacillus acidophilus	capable of blocking	reduced	–	–	–	–
Lactobacillus	–	–	–	–	–	prevents initial steps
